Several values for one entry are separate records, joined by “and”; a condition that tells them apart may be missing. Equal values may be shown once. Where no end group is shown, it is not given here. BUTALA = not defined here; am‑phg = not defined here; PHG = not defined here
Experiments:
HLA-A0201 = HLA-A0201 (Homo sapiens, UniProt P04439, D140Y/D185E/D98H/E176V/E277Q/G131W/G231S/I119V/I121R/I166T/I218V/L300P/L318F/N151K/N90K/P208A/P217A/Q86G/Q94H/R138H/R169H/T345S); type: binding
[1] = system: CD8+ T cells from Influenza A positive donors sorted using tetramers containing HLA A2.1::[…]; type: cell-based
[2] = system: CD8+ T cells from Influenza A positive donors sorted using tetramers containing HLA A2.1::[…]; type: cell-based; remark: listed apart in the source
[3] = system: HLA-A2::Mart-1(26-35) reactive T cells stimulated by T2 cells; assay: T cell activation time course assay, IFNγ production (FACS), Mart-1 epitope; type: cell-based; conditions: for % CD8+ T cells producing IFN-γ 0H / Geometric mean IFN-γ in arbitrary fluorescence units 0H: time point 0H (basal); for % CD8+ T cells producing IFN-γ 2H / Geometric mean IFN-γ in arbitrary fluorescence units 2H: time point 2H; for % CD8+ T cells producing IFN-γ 4H / Geometric mean IFN-γ in arbitrary fluorescence units 4H: time point 4H; for % CD8+ T cells producing IFN-γ 24H / Geometric mean IFN-γ in arbitrary fluorescence units 24H: time point 24H; for % CD8+ T cells producing IFN-γ 24H / Geometric mean IFN-γ in arbitrary fluorescence units 24H / % CD8+ T cells producing IFN-γ 48H / Geometric mean IFN-γ in arbitrary fluorescence units 48H: free peptide washed away; for % CD8+ T cells producing IFN-γ 48H / Geometric mean IFN-γ in arbitrary fluorescence units 48H: time point 48H
[4] = system: CD8+ T cells with SVYDFFVWL (Melanoma, TRP-2, residues 180-188) specific T cell receptor; assay: T cell activation time course assay, IFNγ production by FACS, TRP-2 epitope; type: cell-based; conditions: 48H, peptide 50 picomolar
Protocol: FACS was employed to obtain results.
Also for this epitope, an IFNγ expression time-course experiment was performed. The two distinguishing time points 24H and 48H were taken along at peptide concentrations of 5·10^3 pM, 50 pM and 0.5 pM.

[5] = system: SVYDFFVWL (TRP-2 180-188) reactive T cells; assay: T cell activation time course assay, IFNγ production (FACS), TRP-2 epitope; conditions: for % CD8+ T cells producing IFN-γ peptide concentrations in picomolar 24H 0.5 / Geometric mean IFN-γ in arbitrary fluorescence units peptide concentrations in picomolar 24H 0.5 / % CD8+ T cells producing IFN-γ peptide concentrations in picomolar 48H 0.5 / Geometric mean IFN-γ in arbitrary fluorescence units peptide concentrations in picomolar 48H 0.5: peptide 0.5 pM; for % CD8+ T cells producing IFN-γ peptide concentrations in picomolar 24H 5·10^3 / Geometric mean IFN-γ in arbitrary fluorescence units peptide concentrations in picomolar 24H 5·10^3 / % CD8+ T cells producing IFN-γ peptide concentrations in picomolar 48H 5·10^3 / Geometric mean IFN-γ in arbitrary fluorescence units peptide concentrations in picomolar 48H 5·10^3: peptide 5·10^3 pM

Row | Substance | % inhibition at T=4H and T=24H FP 4h (HLA-A0201) [%] | % inhibition at T=4H and T=24H FP 24h (HLA-A0201) [%] | IC50 Ratio (HLA-A0201) | % Positive TCR recognition % TCR [1] [%] | Geometric mean IFN in arbitrary fluorescence units Geo TCR [1] | % CD8+ T cells producing IFN-γ % IFN [2] [%] | Geometric mean IFN-γ in arbitrary fluorescence units Geo IFN [2] | other results
1 | [am-phg]ILGFV[4-FPHE]TL | 92 | 93 | 6 | 3.27 | 197 arbitrary fluorescence units | 2.2 | 208 arbitrary fluorescence units | –
2 | [am-phg][BUTALA]LGFV[4-FPHE]TL | 83 | 84 | 3 | 3.20 | 217 arbitrary fluorescence units | 2.6 | 266 arbitrary fluorescence units | –
3 | [am-phg][2-AOC]AGIGILT[PRG] | 80 | 77 | 24.3 and 24 | – | – | – | – | % CD8+ T cells producing IFN-γ 0H ([3]; peptide 0.5 pM): 0%; Geometric mean IFN-γ in arbitrary fluorescence units 0H ([3]; peptide 0.5 pM): 104 arbitrary fluorescence units; % CD8+ T cells producing IFN-γ 2H ([3]; peptide 0.5 pM): 26%; Geometric mean IFN-γ in arbitrary fluorescence units 2H ([3]; peptide 0.5 pM): 207 arbitrary fluorescence units; % CD8+ T cells producing IFN-γ 4H ([3]; peptide 0.5 pM): 30%; Geometric mean IFN-γ in arbitrary fluorescence units 4H ([3]; peptide 0.5 pM): 378 arbitrary fluorescence units; % CD8+ T cells producing IFN-γ 24H ([3]; peptide 0.5 pM): 1%; Geometric mean IFN-γ in arbitrary fluorescence units 24H ([3]; peptide 0.5 pM): 116 arbitrary fluorescence units; % CD8+ T cells producing IFN-γ 48H ([3]; peptide 0.5 pM): 0%; Geometric mean IFN-γ in arbitrary fluorescence units 48H ([3]; peptide 0.5 pM): 88 arbitrary fluorescence units; % CD8+ T cells producing IFN-γ 0H ([3]; peptide 50 pM): 0%; Geometric mean IFN-γ in arbitrary fluorescence units 0H ([3]; peptide 50 pM): 109 arbitrary fluorescence units; % CD8+ T cells producing IFN-γ 2H ([3]; peptide 50 pM): 27%; Geometric mean IFN-γ in arbitrary fluorescence units 2H ([3]; peptide 50 pM): 258 arbitrary fluorescence units; % CD8+ T cells producing IFN-γ 4H ([3]; peptide 50 pM): 30%; Geometric mean IFN-γ in arbitrary fluorescence units 4H ([3]; peptide 50 pM): 592 arbitrary fluorescence units; % CD8+ T cells producing IFN-γ 24H ([3]; peptide 50 pM): 16%; Geometric mean IFN-γ in arbitrary fluorescence units 24H ([3]; peptide 50 pM): 187 arbitrary fluorescence units; % CD8+ T cells producing IFN-γ 48H ([3]; peptide 50 pM): 1%; Geometric mean IFN-γ in arbitrary fluorescence units 48H ([3]; peptide 50 pM): 86 arbitrary fluorescence units
4 | [am-phg][NVA]YDFFVWL (N-terminal am-phg and NVA) | – | – | – | – | – | – | – | % CD8+ T cells producing IFN-γ [4]: significantly above background level
5 | [PHG]I[NLE]GFVFTL | 86 | 84 | 3 | 3.26 | 235 arbitrary fluorescence units | 2.9 | 270 arbitrary fluorescence units | –
6 | [am-phg][NVA]AGIGILT[ALG] | 58 | 63 | 2.5 and 2 | – | – | – | – | % CD8+ T cells producing IFN-γ 0H ([3]; peptide 0.5 pM): 0%; Geometric mean IFN-γ in arbitrary fluorescence units 0H ([3]; peptide 0.5 pM): 112 arbitrary fluorescence units; % CD8+ T cells producing IFN-γ 2H ([3]; peptide 0.5 pM): 26%; Geometric mean IFN-γ in arbitrary fluorescence units 2H ([3]; peptide 0.5 pM): 221 arbitrary fluorescence units; % CD8+ T cells producing IFN-γ 4H ([3]; peptide 0.5 pM): 29%; Geometric mean IFN-γ in arbitrary fluorescence units 4H ([3]; peptide 0.5 pM): 350 arbitrary fluorescence units; % CD8+ T cells producing IFN-γ 24H ([3]; peptide 0.5 pM): 17%; Geometric mean IFN-γ in arbitrary fluorescence units 24H ([3]; peptide 0.5 pM): 163 arbitrary fluorescence units; % CD8+ T cells producing IFN-γ 48H ([3]; peptide 0.5 pM): 5%; Geometric mean IFN-γ in arbitrary fluorescence units 48H ([3]; peptide 0.5 pM): 111 arbitrary fluorescence units; % CD8+ T cells producing IFN-γ 0H ([3]; peptide 50 pM): 0%; Geometric mean IFN-γ in arbitrary fluorescence units 0H ([3]; peptide 50 pM): 109 arbitrary fluorescence units; % CD8+ T cells producing IFN-γ 2H ([3]; peptide 50 pM): 28%; Geometric mean IFN-γ in arbitrary fluorescence units 2H ([3]; peptide 50 pM): 247 arbitrary fluorescence units; % CD8+ T cells producing IFN-γ 4H ([3]; peptide 50 pM): 33%; Geometric mean IFN-γ in arbitrary fluorescence units 4H ([3]; peptide 50 pM): 715 arbitrary fluorescence units; % CD8+ T cells producing IFN-γ 24H ([3]; peptide 50 pM): 29%; Geometric mean IFN-γ in arbitrary fluorescence units 24H ([3]; peptide 50 pM): 400 arbitrary fluorescence units; % CD8+ T cells producing IFN-γ 48H ([3]; peptide 50 pM): 20%; Geometric mean IFN-γ in arbitrary fluorescence units 48H ([3]; peptide 50 pM): 280 arbitrary fluorescence units
7 | [PHG][BUTALA]LGFVFTL ({PHG-BUTALA}-LGFVFTL; reading uncertain) | – | 75 | – | 3.16 | 464 arbitrary fluorescence units | 2.5 | 249 arbitrary fluorescence units | –
8 | [am-phg][NLE]LGFV[4-FPHE]TL | 82 | 83 | 3 | 3.40 | 302 arbitrary fluorescence units | 3.0 | 221 arbitrary fluorescence units | –
9 | [am-phg][2-AOC]YDFFVWL ({am‑phg-2‑AOC}-YDFFVWL; reading uncertain; also: printed as [am-phg][2-AOC]YDFFVWL) | – | – | – | – | – | – | – | % CD8+ T cells producing IFN-γ [4]: significantly above background level
10 | [CSME][2-AOC]YDFFVWL | – | – | – | – | – | – | – | % CD8+ T cells producing IFN-γ [4]: significantly above background level
11 | [am-phg][CpALA]LGFV[4-FPHE]TL | 96 | 96 | 5 | 3.26 | 208 arbitrary fluorescence units | 2.8 | 243 arbitrary fluorescence units | –
12 | [am-phg][BUTALA]LGFVFTL | – | 96 | 3 | 3.32 | 155 arbitrary fluorescence units | 2.8 | 205 arbitrary fluorescence units | –
13 | [PHG][NLE]LGFVFTL | 77 | 77 | 4 | 3.58 | 328 arbitrary fluorescence units | 2.7 | 238 arbitrary fluorescence units | –
14 | [am-phg][CpALA]LGFVFTL | – | 91 | 2 | 3.17 | 150 arbitrary fluorescence units | 2.2 | 259 arbitrary fluorescence units | –
15 | [am-phg][NVA]LGFV[4-FPHE]TL | – | 97 | 2 | 3.54 | 143 arbitrary fluorescence units | 3.4 | 242 arbitrary fluorescence units | –
16 | [PHG][NVA]YDFFVW[ALG] | 76 | 73 | – | – | – | – | – | % CD8+ T cells producing IFN-γ peptide concentrations in picomolar 24H 0.5 [5]: 0%; Geometric mean IFN-γ in arbitrary fluorescence units peptide concentrations in picomolar 24H 0.5 [5]: 84 arbitrary fluorescence units; % CD8+ T cells producing IFN-γ peptide concentrations in picomolar 24H 50 ([5]; peptide 50 pM): 6%; Geometric mean IFN-γ in arbitrary fluorescence units peptide concentrations in picomolar 24H 50 ([5]; peptide 50 pM): 71 arbitrary fluorescence units; % CD8+ T cells producing IFN-γ peptide concentrations in picomolar 24H 5·10^3 [5]: 35%; Geometric mean IFN-γ in arbitrary fluorescence units peptide concentrations in picomolar 24H 5·10^3 [5]: 185 arbitrary fluorescence units; % CD8+ T cells producing IFN-γ peptide concentrations in picomolar 48H 0.5 ([5]; 48H): 1%; Geometric mean IFN-γ in arbitrary fluorescence units peptide concentrations in picomolar 48H 0.5 ([5]; 48H): 64 arbitrary fluorescence units; % CD8+ T cells producing IFN-γ peptide concentrations in picomolar 48H 50 ([5]; 48H, peptide 50 pM): 1%; Geometric mean IFN-γ in arbitrary fluorescence units peptide concentrations in picomolar 48H 50 ([5]; 48H, peptide 50 pM): 64 arbitrary fluorescence units; % CD8+ T cells producing IFN-γ peptide concentrations in picomolar 48H 5·10^3 ([5]; 48H): 22%; Geometric mean IFN-γ in arbitrary fluorescence units peptide concentrations in picomolar 48H 5·10^3 ([5]; 48H): 142 arbitrary fluorescence units
17 | [PHG][2-AOC]YDFFVWL | 90 | 75 | – | – | – | – | – | % CD8+ T cells producing IFN-γ peptide concentrations in picomolar 24H 0.5 [5]: 0%; Geometric mean IFN-γ in arbitrary fluorescence units peptide concentrations in picomolar 24H 0.5 [5]: 85 arbitrary fluorescence units; % CD8+ T cells producing IFN-γ peptide concentrations in picomolar 24H 50 ([5]; peptide 50 pM): 14%; Geometric mean IFN-γ in arbitrary fluorescence units peptide concentrations in picomolar 24H 50 ([5]; peptide 50 pM): 95 arbitrary fluorescence units; % CD8+ T cells producing IFN-γ peptide concentrations in picomolar 24H 5·10^3 [5]: 30%; Geometric mean IFN-γ in arbitrary fluorescence units peptide concentrations in picomolar 24H 5·10^3 [5]: 224 arbitrary fluorescence units; % CD8+ T cells producing IFN-γ peptide concentrations in picomolar 48H 0.5 ([5]; 48H): 1%; Geometric mean IFN-γ in arbitrary fluorescence units peptide concentrations in picomolar 48H 0.5 ([5]; 48H): 75 arbitrary fluorescence units; % CD8+ T cells producing IFN-γ peptide concentrations in picomolar 48H 50 ([5]; 48H, peptide 50 pM): 3%; % CD8+ T cells producing IFN-γ peptide concentrations in picomolar 48H 5·10^3 ([5]; 48H): 33%; Geometric mean IFN-γ in arbitrary fluorescence units peptide concentrations in picomolar 48H 5·10^3 ([5]; 48H): 184 arbitrary fluorescence units

From patent EP2649091B1, “IMMUNE RESTRICTED PEPTIDES WITH INCREASED EFFICACY” (Stichting Het Nederlands Kanker Instituut, priority 2010, dated 2012)
